One data set deals with L929 cells. The data set can be described thus: TNF-α-induced cytotoxicity in L929 cells (MTT assay). The format is cell-based. As to conditions: Mus musculus; for inhibition at 3 µM / inhibition at 10 µM / inhibition at 30 µM / inhibition at 1 µM: read-out: Inhibition (%) of TNF-α-induced cytotoxicity; for IC50: read-out: IC50, inhibition of TNF-α-induced decrease in cell viability. On the procedure: The effects of the limonoids (1–17) on the sensitivity of hepatocytes to TNF-α were assessed by measuring TNF-α-induced decreases in the viability of L929 cells, a TNF-α-sensitive cell line, by using the MTT assay. In the absence of a test sample, the cells incubated with 1 ng/mL TNF-α for 44 h were compared with those not incubated with TNF-α.
Assay for the TNF-α-induced cytotoxicity in L929 cells was performed as described previously. Silybin was used as a reference compound [36].

The test system of data set [1] is primary cultured mouse hepatocytes. Briefly: D-GalN-induced cytotoxicity in primary cultured mouse hepatocytes (MTT assay). Conditions: Hepatocyte, read-out: Inhibition (%) of D-GalN-induced cytotoxicity. For orientation: Formazan colour is commonly taken as a measure of viable cells.
Experimental: Assay for the D-GalN-induced cytotoxicity in primary cultured mouse hepatocytes was performed as described previously [33, 35, 36].
Data set [2] can be described thus: Cell viability of LPS-treated mouse peritoneal macrophages (MTT assay). The format is cell-based. As to conditions: mean ± S.E.M. (n = 4), read-out: cell viability (%) in MTT assay (values in parentheses) (converted); for viability at 100 µM: # = cytotoxic effects were observed.
The subject of data set [3] is LPS-activated NO production in mouse peritoneal macrophages. Briefly: LPS-induced NO production in mouse peritoneal macrophages. Conditions: Peritoneal macrophage; for inhibition at 3 µM / inhibition at 10 µM / inhibition at 30 µM / inhibition at 100 µM: read-out: Inhibition (%) of LPS-activated NO production; for IC50: read-out: IC50, inhibition of LPS-activated NO production. The data set is classed as cell-based. On the procedure:
The effects of limonoids (1–17) on NO production were examined to provide an estimation of macrophage activation levels in LPS-treated mouse peritoneal macrophages.
Assay for NO production in TGC-induced mouse peritoneal macrophages was performed as described previously. N^G-Monomethyl-L-arginine (L-NMMA) and caffeic acid phenethyl ester (CAPE) were used as reference compounds [33, 36].

The mark [4] stands for this setting: Mus musculus, 3 µM, mean ± S.E.M. (n = 4).
The mark [5] stands for this setting: Mus musculus, 10 µM, mean ± S.E.M. (n = 4).
Setting [6] is: Mus musculus, 30 µM, mean ± S.E.M. (n = 4).
The mark [7] stands for this setting: Mus musculus, 100 µM, mean ± S.E.M. (n = 4).
Setting [8] is: L929, 1 ng/mL TNF-α, 44 h, mean ± S.E.M. (n = 4).
[9] abbreviates: L929, 3 µM, 1 ng/mL TNF-α, 44 h, mean ± S.E.M. (n = 4).
Setting [10] is: L929, 10 µM, 1 ng/mL TNF-α, 44 h, mean ± S.E.M. (n = 4).
Where [11] appears, read: L929, 30 µM, 1 ng/mL TNF-α, 44 h, mean ± S.E.M. (n = 4).
[12] abbreviates: L929 cells, 1 ng/mL TNF-α, 44 h.
Setting [13] is: LPS-treated TGC-induced mouse peritoneal macrophages.

Where two headings read alike, the source gives them in different places. A value given as a limit tells only on which side of the number the result lay.

In general, inhibition refers to the change of the read-out against control, counted positive when it falls. The term viability denotes a read-out of living cells in per cent, often relative to untreated cells. As usually defined, the IC50 is the concentration needed to halve the response being measured. In the case of `COC(=O)C(OC(C)=O)C1C2(C)CC34OC5(C)OC6(C7CC(=O)OC(c8ccoc8)C7(C)C(OC(C)=O)C(O)C6(O5)C13C)C(OC(=O)C(C)C)C4(O)C2OC(C)=O` (stereo not drawn) [compound 15, Carapanolide O], in the data set on L929 cells (L929, 44 h), the inhibition at 3 µM came to 6.3 ± 4.3%, the inhibition at 10 µM is 1 ± 6.4% and the inhibition at 30 µM was determined as 1.5 ± 4.1%. Besides, in data set [1], the inhibition at 3 µM was determined as 7.5 ± 3.9%, the inhibition at 10 µM was -5.3 ± 5.6%, the inhibition at 30 µM was -5.2 ± 3.9% and the inhibition at 100 µM was -2.1 ± 1.7%. Further, in data set [2], the viability at 3 µM was 104%, the viability at 10 µM was 108%, the viability at 30 µM was 107% and the viability at 100 µM was 109%. Moreover, in data set [3] (setting [4]), the inhibition at 3 µM was -2.5 ± 5.4%. In addition, in data set [3] (setting [5]), the inhibition at 10 µM turned out to be 14.7 ± 8.2%. For the same molecule, the inhibition at 30 µM in data set [3] (setting [6]) came out at 6.9 ± 5%. Further, the inhibition at 100 µM in data set [3] (setting [7]) worked out at 102 ± 3.2%. Further, the IC50 in data set [3] (mouse peritoneal macrophages) was found to be 46 µM.

For the molecule `CCC(C)C(=O)OC1C2(OC(C)=O)CC3(O)C4=CC(=O)OC(c5ccoc5)C4(C)CCC3C(C)(C2=O)C(CC(=O)OC)C1(C)C` (stereo not drawn) [compound 10, Carapanolide C], in the data set on L929 cells (setting [8]), the inhibition at 1 µM worked out at 4.9 ± 2.1%. The inhibition at 3 µM in the data set with L929 cells (setting [9]) was found to be 14.2 ± 3.2%; in data set [1], 8 ± 4.3%; in data set [3] (setting [4]), 4.2 ± 8.8%. For the same molecule, the inhibition at 10 µM worked out at 27.7 ± 4.3% in the data set on L929 cells (setting [10]), 3.4 ± 4.2% in data set [1] and 20.8 ± 5% in data set [3] (setting [5]). In addition, the inhibition at 30 µM turned out to be 54.5 ± 5.5% with L929 cells (setting [11]), 6.7 ± 2.1% in data set [1] and 20.2 ± 4.9% in data set [3] (setting [6]). Besides, the IC50 was 27 µM in the data set with L929 cells (setting [12]) and more than 100 µM in data set [3] (mouse peritoneal macrophages). Further, the inhibition at 100 µM was -7.7 ± 4.4% in data set [1] and 13.2 ± 1.9% in data set [3] (setting [7]). Moreover, the viability at 3 µM in data set [2] (setting [13]) was 96%. In addition, the viability at 10 µM in data set [2] (setting [13]) was 98.9%. For the same molecule, in data set [2] (setting [13]), the viability at 30 µM is 91.8%. For the same molecule, in data set [2] (setting [13]), the viability at 100 µM is 80%.

In the case of `CCC(=O)OC1C2(OC(C)=O)C(OC(C)=O)C3(C)CC24OC2(C)OC15C(CC(=O)OC)C1(C)CC(c6occc6C1=O)C5(O2)C41COC(=O)CC31` (stereo not drawn) [compound 16, guianolide A], in the data set with L929 cells (setting [9]), the inhibition at 3 µM is -6.2 ± 5.2%. For the same molecule, the inhibition at 10 µM in the data set on L929 cells (setting [10]) was -4.5 ± 1.9%. Further, the inhibition at 30 µM with L929 cells (setting [11]) was -7.3 ± 3%. Besides, in data set [1], the inhibition at 3 µM came to 9.2 ± 4.2%, the inhibition at 10 µM came to 11 ± 5.3%, the inhibition at 30 µM amounted to 9.8 ± 2.8% and the inhibition at 100 µM turned out to be 23.5 ± 3.5%. In data set [2] (setting [13]), the viability at 3 µM was 96.9%, the viability at 10 µM was 102%, the viability at 30 µM was 98.7% and the viability at 100 µM is 106%. Moreover, in data set [3] (Mus musculus), the IC50 was found to be 77.9 µM, the inhibition at 3 µM amounted to 1.9 ± 3.2%, the inhibition at 10 µM came out at 3.2 ± 1.4% and the inhibition at 30 µM was 12.7 ± 1.6%. Further, the inhibition at 100 µM in data set [3] (Mus musculus) is 71.3 ± 3.2%.

Turning to `CC(=O)O[C@@H]1C2C(C)(C)C(=O)C=C[C@]2(C)C2CC[C@@]3(C)[C@H](c4ccoc4)OC(=O)[C@H]4O[C@]43[C@]2(C)[C@@H]1O` (stereo partly drawn) [compound 5, andirolide H], the inhibition at 1 µM in the data set on L929 cells (setting [8]) was -6.6 ± 3.6%. In addition, the inhibition at 3 µM in the data set on L929 cells (setting [9]) is -0.7 ± 1.2%; in data set [1] it was -6.2 ± 2.6%; in data set [3] (setting [4]) it was 5.8 ± 6.1%. The results for the inhibition at 10 µM (with L929 cells (setting [10]); in data set [1]; in data set [3] (setting [5])) were 7.6 ± 1.1%, -9 ± 0.5% and 63.9 ± 3%, respectively. Moreover, the inhibition at 30 µM was 39.2 ± 1.7% with L929 cells (setting [11]), -9.2 ± 0.8% in data set [1] and 97.2 ± 0.9% in data set [3] (setting [6]). Also, the inhibition at 100 µM in data set [1] was -0.6 ± 0.8%; in data set [3] (setting [7]), 99.7 ± 0.5%. In addition, in data set [2] (setting [13]), the viability at 3 µM was 99.8%. In data set [2] (setting [13]), the viability at 10 µM is 104%. In data set [2] (setting [13]), the viability at 30 µM was 109%. In addition, in data set [2] (setting [13]), the viability at 100 µM was 4.9%. Besides, the IC50 in data set [3] (mouse peritoneal macrophages) is 9.4 µM.

`CCC(=O)OC1C2(O)C(OC(C)=O)C3(C)CC24OC2(C)OC15C1CC(=O)OC(c6ccoc6)C1(C)C(OC(C)=O)C(O)C5(O2)C4(C)C3CC(=O)OC` (stereo not drawn) [compound 13, Carapanolide M]: the inhibition at 3 µM in the data set with L929 cells (setting [9]) was -1.5 ± 7.1%. The inhibition at 10 µM with L929 cells (setting [10]) was 7 ± 4.4%. Also, the inhibition at 30 µM with L929 cells (setting [11]) is -5.1 ± 6.2%. Moreover, in data set [1], the inhibition at 3 µM is -7 ± 0.5%, the inhibition at 10 µM was -7.3 ± 0.7%, the inhibition at 30 µM was 1 ± 0.4% and the inhibition at 100 µM was -9.9 ± 1%. Besides, in data set [2], the viability at 3 µM was 99.2%, the viability at 10 µM is 95.1%, the viability at 30 µM is 94.2% and the viability at 100 µM was 112%. Moreover, in data set [3] (Mus musculus), the IC50 was determined as 41.6 µM, the inhibition at 3 µM was -1.1 ± 2.7%, the inhibition at 10 µM turned out to be 3.2 ± 2.8% and the inhibition at 30 µM was found to be 30.3 ± 3.1%. Moreover, the inhibition at 100 µM in data set [3] (Mus musculus) is 85.1 ± 1.5%.

For the molecule `COC(=O)CC1C(C)C(=O)C2(CC3(O)C4CC(=O)OC(c5ccoc5)C4(C)CCC3(O)O2)C(OC(=O)C(C)C)C1(C)C` (stereo not drawn) [compound 17, carapanolide A], the inhibition at 3 µM in the data set with L929 cells (setting [9]) is 8.8 ± 6.5%; in data set [1], -6.8 ± 1.2%; in data set [3] (setting [4]) it was -0.6 ± 2.1%. In addition, the inhibition at 10 µM with L929 cells (setting [10]) is 21.5 ± 5.5%; in data set [1], -8.3 ± 0.7%; in data set [3] (setting [5]) it was 1.2 ± 2%. Also, the values for the inhibition at 30 µM (with L929 cells (setting [11]); in data set [1]; in data set [3] (setting [6])) were 58.2 ± 4.7%, -4.5 ± 0.6% and 41.1 ± 1%, respectively. In addition, the concentration for half-maximal inhibition (IC50) with L929 cells (setting [12]) is 25.3 µM; in data set [3] (mouse peritoneal macrophages) it was more than 100 µM. Moreover, the results for the inhibition at 100 µM in data set [1] and in data set [3] (setting [7]) were -7 ± 0.6% and 4.9 ± 1.8%, respectively. Besides, the viability at 3 µM in data set [2] (setting [13]) was 103%. In addition, the viability at 10 µM in data set [2] (setting [13]) is 104%. Besides, the viability at 30 µM in data set [2] (setting [13]) was 110%. For the same molecule, the viability at 100 µM in data set [2] (setting [13]) is 91.3%.

For the molecule `CC(=O)O[C@@H]1C[C@H]2C(C)(C)C(=O)C=C[C@]2(C)[C@H]2CC[C@@]3(C)[C@H](c4ccoc4)C(=O)[C@H]4O[C@]43[C@@]21C` [compound 8, epoxyazadiradione], in the data set on L929 cells (L929, 44 h), the IC50 turned out to be 10.2 µM, the inhibition at 3 µM came to 13.7 ± 3.9%, the inhibition at 10 µM came to 39.1 ± 6.5% and the inhibition at 30 µM came to 91.5 ± 11.4%. In data set [1], the inhibition at 3 µM is -3.1 ± 8.9%, the inhibition at 10 µM is -2.2 ± 2.5%, the inhibition at 30 µM was -10.8 ± 0.6% and the inhibition at 100 µM was -11.9 ± 0.3%. For the same molecule, in data set [2], the viability at 3 µM was 99.6%, the viability at 10 µM is 94.8%, the viability at 30 µM was 81.9% and the viability at 100 µM is 10%. Besides, in data set [3] (setting [4]), the inhibition at 3 µM turned out to be 10.5 ± 0.9%. The inhibition at 10 µM in data set [3] (setting [5]) worked out at 56 ± 4%. Further, the inhibition at 30 µM in data set [3] (setting [6]) stood at 103 ± 4%. Also, the inhibition at 100 µM in data set [3] (setting [7]) came to 112.3 ± 0.7%. The half-maximal inhibitory concentration (IC50) in data set [3] (mouse peritoneal macrophages) was determined as 8.2 µM.
